Experimental data published in publication PMC7606612, “Identification of HMGA2 inhibitors by AlphaScreen-based ultra-high-throughput screening assays” (Scientific Reports, 2020).
pIC50: −log10 of the molar value.

Columns and labels:
[1] = tested on: human epidermoid carcinoma cell line, A431; test: Cytotoxicity / cell viability assay (ATPlite); type: cell-based; conditions: human A-431 cells, 48 h
Procedure: In this study, we also developed a LANCE time-resolved fluorescence energy transfer (TR-FRET) assay as a secondary assay for our screening. The His-tagged HMGA2 and biotinylated oligomer FL814 were linked to Europium-labeled anti-6 × His antibody and APC-labeled streptavidin, respectively. A series of DNA binding studies were performed to determine the optimal conditions for the secondary Assay (Fig. S2). After these experiments, 12.5 nM of FL814 and 62.5 nM of HMGA2 were chosen for the assay, which is the same for the primary assay. The assay tolerated up to 0.25% DMSO without any significant change in signal (Fig. S2c). For a counterscreen assay to exclude those compounds that nonspecifically bind to the protein surface, an AlphaScreen assay of H4 peptide binding to bromodomain-containing protein 4 (BRD4) was adopted (Fig. S2e). Since we are looking for compounds with anti-metastasis or anti-obesity activities, compounds with high levels of cytotoxicity are undesirable. […]
A-431 cells were grown in media (DMEM + 10% FBS + 1 × Penicillin/Streptomycin + 2 mM L-glutamine) at 37 °C in a humidified incubator with 5% CO2 to 70% confluency. […] After 10 min the plates were read using a Perkin Elmer Viewlux multimode plate reader in luminescence mode.

[2] = tested on: anaplastic thyroid carcinoma cell line 8505c; test: ID2 mRNA expression in 8505c cells; type: cell-based, human; conditions: 200 and 400 µM
Description: (§1) The role of HMGA1 and HMGA2 in regulating ID2 transcription was confirmed by analyzing its expression in mouse embryonic fibroblasts (MEFs) knock-out for HMGA1, HMGA2, and the A1/A2 double mutant, respectively. […] We identified two AT-rich regions, hereafter indicated as “region A” and “region B”, in the human ID2 promoter, containing the HMGA2 consensus sequence[26] (Table S2) for our ChIP experiments. Due to availability, the high proliferation rate, and the expression of HMGA proteins, the anaplastic thyroid carcinoma cell line 8505c was used.
The single-cell suspension was obtained by mechanical disaggregation of the spheres and RNA was extracted 48 h later, by using Direct-zol RNA MiniPrep (Zymo Research). One μg of RNA was retrotranscribed, by using QuantiTect® Reverse Transcription Kit (Qiagen) and qRT-PCR was performed as described. The 2^–ΔΔCt formula was used to calculate the differential gene expression.

[3] = tested on: anaplastic thyroid carcinoma cell line 8505c; test: Chromatin immunoprecipitation (ChIP) of HMGA2 on ID2 promoter regions A and B; type: cell-based, human; conditions: 6 days
Description: as §1
Chromatin immunoprecipitation was performed as described. Briefly, for each sample, 5 × 10^6 cells were collected by trypsinization and cross-linked with 1% formaldehyde; after sonication, the samples were immunoprecipitated with 10 µL anti-HMGA2 antibody (Genetex) or with control normal rabbit IgG and the chromatin was extracted. qPCR amplification was performed on 6 µL of immunoprecipitated DNA, using primers amplifying regions A and B of the ID2 promoter (Table S2). Ct values of samples precipitated with anti-HMGA2 and IgG antibodies were normalized with Ct values of input DNA. Fold change enrichment was calculated in comparison to normalized IgG, using the 2^−ΔΔCt formula. P values were calculated by using one-way ANOVA followed by Sidak’s multiple comparison test.

HMGA2-DNA interactions = target: T1, HMGA2-DNA interactions (Mus musculus, UniProt P52927); test: AlphaScreen primary uHTS assay of His-tagged HMGA2 binding to biotin-labeled DNA oligomer FL814; set-up: species or system mammalian
T1 construct: made in house
T1 sequence (P52927 2-108 limits assumed): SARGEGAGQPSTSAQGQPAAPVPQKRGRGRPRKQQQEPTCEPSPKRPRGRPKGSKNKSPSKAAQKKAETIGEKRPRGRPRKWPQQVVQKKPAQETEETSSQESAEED
Procedure: To address these limitations, we established a new assay using AlphaScreen technology. The assay entails binding a biotin-labeled DNA oligomer FL814 and His-tagged HMGA2 to streptavidin-coated donor beads and nickel chelate (Ni-NTA) acceptor beads, respectively (Fig. 1). A series of DNA binding studies were performed to determine the optimal conditions for the AlphaScreen Primary Assay (Fig. S1a–d). […] These two inhibitors are readily available for purchase and served as positive controls for HMGA2-DNA interaction inhibition in the assay.
Using a Labcyte Echo 555 acoustic dispenser 5 nL of DMSO were added to columns 1–4 and 45–48 of a white 1536 well plate, while 5 nL of 2 mM compounds in DMSO were added to columns 5–44. Using a Beckman BioRAPTR FRD bulk reagent dispenser 1 µL of assay buffer (30 mM Citrate, 300 mM NaCl, and 0.005% Tween 20) was added to columns 1 and 2. Next 1 µL of assay buffer containing 125 nM HMGA2 was added to columns 3–48 with a Beckman BioRAPTR FRD bulk reagent dispenser. Finally, 1 µL of assay buffer containing 25 nM FL814 was added to every well of the plate using a Beckman BioRAPTR FRD bulk reagent dispenser. The plate was then centrifuged at 200 × g for 1 min. After 30 min at room temperature, 2 µL of bead buffer (10 mM HEPES, 300 mM NaCl and 0.005% Tween 20) containing 20 µg/mL anti-6xHIS acceptor beads and 20 µg/mL streptavidin donor beads were dispensed into every well using a Beckman BioRAPTR FRD bulk reagent dispenser. The plates were then centrifuged at 200 × g for 1 min. After 1 h at room temperature the plates were read on a Perkin Elmer Envision multimode plate reader in AlphaScreen mode.

Cc1ccc(C(=O)Nc2ccc(S(=O)(=O)O)c3cc(S(=O)(=O)O)cc(S(=O)(=O)O)c23)cc1NC(=O)c1cccc(NC(=O)Nc2cccc(C(=O)Nc3cc(C(=O)Nc4ccc(S(=O)(=O)O)c5cc(S(=O)(=O)O)cc(S(=O)(=O)O)c45)ccc3C)c2)c1 [suramin]
cytotoxicity [1]: not cytotoxic | mRNA expression level of ID2 [2]: significantly decreased | HMGA2 binding to ID2 promoter regions A and B (ChIP) ([3]; 100 µM): did not detect significant HMGA2 binding reduction | HMGA2 binding to ID2 promoter regions A and B (ChIP) ([3]; 200 µM): drastic reduction in the enrichment | inhibition at 5 µM (HMGA2-DNA interactions; LOPAC1280 screen, final concentration of 5 µM): ≥ 50% | inhibition of HMGA2-DNA interactions (in words) (HMGA2-DNA interactions; confirmed hits that do not bind to DNA): strongly inhibit HMGA2-DNA interactions | pIC50 (HMGA2-DNA interactions; titration, HMGA2-FL814 interactions, Fig. 3a): 5.59
